Assay results reported in BindingDB's records for doi:10.3109/14756366.2012.715287 (Atatürk University, 2013).

Molecular target: Serum paraoxonase/arylesterase 1 (Homo sapiens, UniProt P27169)
Assay: Enzyme Activity Assay
Protocol: The enzyme assay was based on the estimation of p-nitrophenol at 412 nm. Paraoxonase activity was determined spectrophotometrically using the same procedure in our previous studies [Ekinci et al., Eur. J. Pharmacol., 617:84-89]. One enzyme unit was defined as the amount of enzyme that catalyzes the hydrolysis of 1 μmol of substrate at 25°C.

Serum paraoxonase/arylesterase 1, sequence (P27169 whole entry): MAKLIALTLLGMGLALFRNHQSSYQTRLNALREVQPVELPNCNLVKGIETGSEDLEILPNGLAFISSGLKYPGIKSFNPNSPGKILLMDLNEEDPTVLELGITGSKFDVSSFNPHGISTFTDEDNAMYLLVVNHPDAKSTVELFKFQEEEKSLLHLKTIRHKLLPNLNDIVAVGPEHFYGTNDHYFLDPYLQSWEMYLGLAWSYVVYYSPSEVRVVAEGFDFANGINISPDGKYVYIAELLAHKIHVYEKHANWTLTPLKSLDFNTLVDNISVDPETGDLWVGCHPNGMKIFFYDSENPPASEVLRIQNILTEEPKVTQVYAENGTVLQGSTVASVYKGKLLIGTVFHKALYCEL

For `COc1cc(C(=O)c2c(Br)c(Br)cc(OC)c2OC)cc(Br)c1OC` [(3-Bromo-4,5-dimethoxyphenyl)(2,3-dibromo-5,6-dimethoxyphenyl)methanone (9)], which IC50 is on record?
The IC50 was 125 µM.

With `O=C(c1cc(O)c(O)c(Br)c1)c1c(O)c(O)cc(Br)c1Br` [(3-Bromo-4,5-dihydroxyphenyl)(2,3-dibromo-5,6-dihydroxyphenyl)methanone (12)] as the compound, how does the IC50 read?
The IC50 was 701 µM.

How did the IC50 turn out when `COc1ccc(C(=O)c2c(Br)c(Br)cc(OC)c2OC)cc1OC` [(2,3-dibromo-5,6-dimethoxyphenyl)(3,4-dimethoxyphenyl)methanone (7)] was run?
The IC50 was 174 µM.

`COc1ccc(C(=O)c2cccc(OC)c2OC)cc1OC` [(2,3-dimethoxyphenyl)(3,4-dimethoxyphenyl)methanone (6)] was tested. Which IC50 did it give?
Its IC50 is 1210 µM.

Which IC50 does the source give for `COc1cc(Br)c(C(=O)c2c(Br)c(Br)cc(OC)c2OC)cc1OC` [(2-Bromo-4,5-dimethoxyphenyl)(2,3-dibromo-5,6-dimethoxyphenyl)methanone (8)] here?
Its IC50 is 123 µM.

With `O=C(c1ccc(O)c(O)c1)c1c(O)c(O)cc(Br)c1Br` [(2,3-Dibromo-5,6-dihydroxyphenyl)(3,4-dihydroxyphenyl)methanone (10)] as the compound, how does the IC50 read?
The IC50 was 832 µM.

Which IC50 does the source give for `O=C(c1cc(O)c(O)cc1Br)c1c(O)c(O)cc(Br)c1Br` [(2-Bromo-4,5-dihydroxyphenyl)(2,3-dibromo-5,6-dihydroxyphenyl)methanone (11)] here?
Its IC50 is 1110 µM.
